In ChEMBL document CHEMBL3885881, “DrugMatrix”:

Organism: Rattus norvegicus
Assay: DrugMatrix - Regimen: Daily Repeat
Format: toxicity, organism-based, Sprague-Dawley
Design: regimen Daily Repeat, gender Male, age 6-8 weeks
Conditions: in vivo, po, route oral GAVAGE, […]; for ABSOLUTE BASOPHIL / ABSOLUTE EOSINOPHIL / ABSOLUTE LYMPHOCYTE / ABSOLUTE MONOCYTE / ABSOLUTE SEGMENTED NEUTROPHIL / BASOPHIL / EOSINOPHIL / ERYTHROCYTE COUNT / HEMATOCRIT / HEMOGLOBIN / LEUKOCYTE COUNT / LYMPHOCYTE / MEAN CORPUSCULAR HEMOGLOBIN / MEAN CORPUSCULAR HEMOGLOBIN CONCENTRATION / MONOCYTE / NEUTROPHIL / NUCLEATED RED BLOOD CELLS / PLATELET COUNT: tissue Blood; for ALANINE AMINOTRANSFERASE / ALBUMIN / ALKALINE PHOSPHATASE / ASPARTATE AMINOTRANSFERASE / BLOOD UREA NITROGEN / CARBON DIOXIDE / CHLORIDE / CHOLESTEROL / CREATINE PHOSPHOKINASE / CREATININE / GLUCOSE / LACTATE DEHYDROGENASE / LIPASE / PHOSPHORUS / POTASSIUM / SODIUM / TOTAL BILIRUBIN / TOTAL PROTEIN / URIC ACID: tissue Plasma
[1] = 0 mg/kg, 72 h, dose level Control, time 3 day
[2] = 0 mg/kg, 120 h, dose level Control, time 5 day
[3] = 54 mg/kg, 72 h, dose level Low, time 3 day
[4] = 54 mg/kg, 120 h, dose level Low, time 5 day

CC(C)Cc1ccc(C(C)C(=O)O)cc1 (configuration not stated) [IBUPROFEN]
ABSOLUTE BASOPHIL [1]: 0 CELLS/uL | ABSOLUTE EOSINOPHIL [1]: 0 CELLS/uL | ABSOLUTE LYMPHOCYTE [1]: 7601 CELLS/uL | ABSOLUTE MONOCYTE [1]: 354.33 CELLS/uL | ABSOLUTE SEGMENTED NEUTROPHIL [1]: 744.67 CELLS/uL | BASOPHIL [1]: 0% | EOSINOPHIL [1]: 0% | ERYTHROCYTE COUNT [1]: 5.03 x10E6/uL | HEMATOCRIT [1]: 33.7% | HEMOGLOBIN [1]: 13.43 G/DL | LEUKOCYTE COUNT [1]: 8.7 x10E3/uL | LYMPHOCYTE [1]: 86.33% | MEAN CORPUSCULAR HEMOGLOBIN [1]: 26.7 pg | MEAN CORPUSCULAR HEMOGLOBIN CONCENTRATION [1]: 39.83 G/DL | MONOCYTE [1]: 4.67% | NEUTROPHIL [1]: 9% | NUCLEATED RED BLOOD CELLS [1]: 0 /100WBC | PLATELET COUNT [1]: 1151 x10E3/uL | ALANINE AMINOTRANSFERASE [1]: 97.67 u/L | ALBUMIN [1]: 4.07 G/DL | ALKALINE PHOSPHATASE [1]: 607.67 u/L | ASPARTATE AMINOTRANSFERASE [1]: 101 u/L | BLOOD UREA NITROGEN [1]: 13.33 mg/dL | CARBON DIOXIDE [1]: 36 mmol/L | CHLORIDE [1]: 99.67 MEQ/L | CHOLESTEROL [1]: 75.67 mg/dL | CREATINE PHOSPHOKINASE [1]: 279.67 u/L | CREATININE [1]: 0.16 mg/dL | GLUCOSE [1]: 164 mg/dL | LACTATE DEHYDROGENASE [1]: 115 u/L | LIPASE [1]: 12.67 u/L | PHOSPHORUS [1]: 8.77 mg/dL | POTASSIUM [1]: 5.79 MEQ/L | SODIUM [1]: 142.83 MEQ/L | TOTAL BILIRUBIN [1]: 0.27 mg/dL | TOTAL PROTEIN [1]: 5.8 G/DL | URIC ACID [1]: 0.67 mg/dL | ABSOLUTE BASOPHIL [2]: 0 CELLS/uL | ABSOLUTE EOSINOPHIL [2]: 0 CELLS/uL | ABSOLUTE LYMPHOCYTE [2]: 4426.33 CELLS/uL | ABSOLUTE MONOCYTE [2]: 102.67 CELLS/uL | ABSOLUTE SEGMENTED NEUTROPHIL [2]: 337.67 CELLS/uL | BASOPHIL [2]: 0% | EOSINOPHIL [2]: 0% | ERYTHROCYTE COUNT [2]: 5.31 x10E6/uL | HEMATOCRIT [2]: 32.5% | HEMOGLOBIN [2]: 13.17 G/DL | LEUKOCYTE COUNT [2]: 4.87 x10E3/uL | LYMPHOCYTE [2]: 90.33% | MEAN CORPUSCULAR HEMOGLOBIN [2]: 24.93 pg | MEAN CORPUSCULAR HEMOGLOBIN CONCENTRATION [2]: 40.67 G/DL | MONOCYTE [2]: 2.33% | NEUTROPHIL [2]: 7.33% | NUCLEATED RED BLOOD CELLS [2]: 0.33 /100WBC | PLATELET COUNT [2]: 848.33 x10E3/uL | ALANINE AMINOTRANSFERASE [2]: 59.67 u/L | ALBUMIN [2]: 3.87 G/DL | ALKALINE PHOSPHATASE [2]: 452 u/L | ASPARTATE AMINOTRANSFERASE [2]: 81.33 u/L | BLOOD UREA NITROGEN [2]: 13.67 mg/dL | CARBON DIOXIDE [2]: 26.33 mmol/L | CHLORIDE [2]: 103.67 MEQ/L | CHOLESTEROL [2]: 65.67 mg/dL | CREATINE PHOSPHOKINASE [2]: 355.33 u/L | CREATININE [2]: 0.14 mg/dL | GLUCOSE [2]: 171.33 mg/dL | LACTATE DEHYDROGENASE [2]: 118 u/L | LIPASE [2]: 11.33 u/L | PHOSPHORUS [2]: 11.13 mg/dL | POTASSIUM [2]: 5.18 MEQ/L | SODIUM [2]: 143.17 MEQ/L | TOTAL BILIRUBIN [2]: 0.2 mg/dL | TOTAL PROTEIN [2]: 5.87 G/DL | URIC ACID [2]: 0.63 mg/dL | ABSOLUTE BASOPHIL [3]: 0 CELLS/uL | ABSOLUTE EOSINOPHIL [3]: 0 CELLS/uL | ABSOLUTE LYMPHOCYTE [3]: 9143 CELLS/uL | ABSOLUTE MONOCYTE [3]: 146.33 CELLS/uL | ABSOLUTE SEGMENTED NEUTROPHIL [3]: 1110.67 CELLS/uL | BASOPHIL [3]: 0% | EOSINOPHIL [3]: 0% | ERYTHROCYTE COUNT [3]: 5.12 x10E6/uL | HEMATOCRIT [3]: 32.67% | HEMOGLOBIN [3]: 12.97 G/DL | LEUKOCYTE COUNT [3]: 10.4 x10E3/uL | LYMPHOCYTE [3]: 88% | MEAN CORPUSCULAR HEMOGLOBIN [3]: 25.37 pg | MEAN CORPUSCULAR HEMOGLOBIN CONCENTRATION [3]: 39.7 G/DL | MONOCYTE [3]: 1.33% | NEUTROPHIL [3]: 10.67% | NUCLEATED RED BLOOD CELLS [3]: 0 /100WBC | PLATELET COUNT [3]: 1145.67 x10E3/uL | ALANINE AMINOTRANSFERASE [3]: 89.33 u/L | ALBUMIN [3]: 4 G/DL | ALKALINE PHOSPHATASE [3]: 470.33 u/L | ASPARTATE AMINOTRANSFERASE [3]: 89.33 u/L | BLOOD UREA NITROGEN [3]: 14.33 mg/dL | CARBON DIOXIDE [3]: 40.33 mmol/L | CHLORIDE [3]: 98 MEQ/L | CHOLESTEROL [3]: 76.67 mg/dL | CREATINE PHOSPHOKINASE [3]: 208.67 u/L | CREATININE [3]: 0.13 mg/dL | GLUCOSE [3]: 160.67 mg/dL | LACTATE DEHYDROGENASE [3]: 55 u/L | LIPASE [3]: 10.67 u/L | PHOSPHORUS [3]: 9.53 mg/dL | POTASSIUM [3]: 5.26 MEQ/L | SODIUM [3]: 143.43 MEQ/L | TOTAL BILIRUBIN [3]: 0.2 mg/dL | TOTAL PROTEIN [3]: 5.9 G/DL | URIC ACID [3]: 0.37 mg/dL | ABSOLUTE BASOPHIL [4]: 0 CELLS/uL | ABSOLUTE EOSINOPHIL [4]: 0 CELLS/uL | ABSOLUTE LYMPHOCYTE [4]: 9058.67 CELLS/uL | ABSOLUTE MONOCYTE [4]: 185 CELLS/uL | ABSOLUTE SEGMENTED NEUTROPHIL [4]: 289.67 CELLS/uL | BASOPHIL [4]: 0% | EOSINOPHIL [4]: 0% | ERYTHROCYTE COUNT [4]: 5.22 x10E6/uL | HEMATOCRIT [4]: 32.87% | HEMOGLOBIN [4]: 13 G/DL | LEUKOCYTE COUNT [4]: 9.53 x10E3/uL | LYMPHOCYTE [4]: 95.33% | MEAN CORPUSCULAR HEMOGLOBIN [4]: 24.87 pg | MEAN CORPUSCULAR HEMOGLOBIN CONCENTRATION [4]: 39.57 G/DL | MONOCYTE [4]: 1.67% | NEUTROPHIL [4]: 3% | NUCLEATED RED BLOOD CELLS [4]: 0 /100WBC | PLATELET COUNT [4]: 1110.33 x10E3/uL | ALANINE AMINOTRANSFERASE [4]: 65.67 u/L | ALBUMIN [4]: 3.9 G/DL | ALKALINE PHOSPHATASE [4]: 301 u/L | ASPARTATE AMINOTRANSFERASE [4]: 84.67 u/L | BLOOD UREA NITROGEN [4]: 12.67 mg/dL | CARBON DIOXIDE [4]: 28.67 mmol/L | CHLORIDE [4]: 103.67 MEQ/L | CHOLESTEROL [4]: 69.67 mg/dL | CREATINE PHOSPHOKINASE [4]: 213.67 u/L | CREATININE [4]: 0.23 mg/dL | GLUCOSE [4]: 164 mg/dL | LIPASE [4]: 11 u/L | PHOSPHORUS [4]: 11.1 mg/dL | POTASSIUM [4]: 5.49 MEQ/L | SODIUM [4]: 144.2 MEQ/L | TOTAL BILIRUBIN [4]: 0.13 mg/dL | TOTAL PROTEIN [4]: 5.87 G/DL | URIC ACID [4]: 0.57 mg/dL
